This is an account of results in patent US20030134859A1 (SANKYO COMPANY, LIMITED, priority 2000, published 2003).

Structures can show the parent of a compound that is named as a salt.

One test has as its system TNF-α production. Briefly: Inhibitory activity against cytokine (TNF-α) production in LPS-stimulated RAW264.7 cells. The test is classed as cell-based, mouse. The settings on record: Mus musculus, RAW264.7, 15 h, 1 μM test compound, LPS 10 ng/mL. Put shortly: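 Mouse RAW264.7 macrophages (5,000 cells/well) stimulated with 10 ng/mL LPS (final) and treated with test compound at 1 μM final for 15 h at 37 °C. Supernatant mouse TNF-α measured by ELISA; % inhibition = 100−(A−B)/(C−B)×100, using unstimulated and LPS-only controls.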

Test [1] relates to human colon cancer cells COL-2-JCK. Kind of test: Inhibition of colony forming activity in human colon cancer cells. The test is classed as cell-based. As to conditions: 1 μM test compound, 10 days, sum of colony areas vs control; for inhibition at 1 µM: Homo sapiens, 240 h, read-out: Inhibition Rate (%) against the colony forming activity. Put shortly: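 COL-2-JCK cells seeded at 300 cells/well and grown 10 days at 37 °C, 5% CO2 with compound at 1 μM final (0.1% DMSO). Colonies stained with crystal violet in formalin; inhibition % = (1 − treated/control colony area)×100.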

In general, inhibition refers to the share of the control response that was lost under treatment. Consider `Cc1cnc(NC(=O)c2cc([N+](=O)[O-])ccc2Cl)s1` [Example 4, N-(5-Methylthiazol-2-yl)-(2-chloro-5-nitrophenyl)carboxamide], for which the results for the inhibition at 1 µM (in the test on TNF-α production; in test [1]) were 18.5% and 62%, respectively. As for `O=C(Nc1cccc(-c2ccccc2)c1)c1cc([N+](=O)[O-])ccc1Cl` [Example 5, N-(3-Phenylphenyl)-(2-chloro-5-nitrophenyl)carboxamide], the inhibition at 1 µM in test [1] is 26%.

`COc1ccc(NC(=O)c2cc([N+](=O)[O-])ccc2Cl)cc1-c1ccccc1` [Example 6, N-(4-Methoxy-3-phenyl)phenyl-(2-chloro-5-nitrophenyl)carboxamide]: the inhibition at 1 µM in test [1] was determined as 22%. Same read-out and setting: then `O=C(Nc1ccccc1-c1ccccc1)c1cc([N+](=O)[O-])ccc1Cl` [Example 7, N-(2-Phenylphenyl)-(2-chloro-5-nitrophenyl)carboxamide], with 24%.

`CC(C)(C)c1cc(NC(=O)c2cc([N+](=O)[O-])ccc2Cl)cc(C(C)(C)C)c1O` [Example 29, N-(3,5-Di-t-butyl-4-hydroxyphenyl)-(2-chloro-5-nitrophenyl)carboxamide]: the results for the inhibition at 1 µM (in the test with TNF-α production; in test [1]) were 22.9% and 41%, respectively. Regarding `O=C(Nc1cccc(NS(=O)(=O)c2ccccc2)c1)c1cc([N+](=O)[O-])ccc1Cl` [Example 30, N-(3-Benzensulfonylaminophenyl)-(2-chloro-5-nitrophenyl)carboxamide], the inhibition at 1 µM in test [1] stood at 42%.

Consider `O=C(Nc1nc(-c2ccccn2)cs1)c1cc([N+](=O)[O-])ccc1Cl` [Example 38, N-[4-(2-Pyridyl)thiazol-2-yl)-(2-chloro-5-nitrophenyl)carboxamide], for which the inhibition at 1 µM in test [1] was 99.9%. `Cc1ccccc1-c1csc(NC(=O)c2cc([N+](=O)[O-])ccc2Cl)n1` [Example 39, N-[4-(2-Methylphenyl)thiazol-2-yl]-(2-chloro-5-nitrophenyl)carboxamide]: the inhibition at 1 µM came to 29.8% with TNF-α production and 48% in test [1]. For `Cc1cccc(-c2csc(NC(=O)c3cc([N+](=O)[O-])ccc3Cl)n2)c1` [Example 40, N-[4-(3-Methylphenyl)thiazol-2-yl)-(2-chloro-5-nitrophenyl)carboxamide], the values for the inhibition at 1 µM (in the test with TNF-α production; in test [1]) were 27.1% and 35%, respectively. In the same order, the values of `O=C(Nc1nc(-c2cccc3ccccc23)cs1)c1cc([N+](=O)[O-])ccc1Cl` [Example 41, N-[4-(1-Naphthyl)thiazol-2-yl]-(2-chloro-5-nitrophenyl)carboxamide] are 30% and 55%. In the same order, the values of `CCc1ccc(-c2csc(NC(=O)c3cc([N+](=O)[O-])ccc3Cl)n2)cc1` [Example 44, N-[4-(4-Ethylphenyl)thiazol-2-yl]-(2-chloro-5-nitrophenyl)carboxamide] are 18% and 35%.

In the test with TNF-α production, `Cc1ccc(-c2nc(NC(=O)c3cc([N+](=O)[O-])ccc3Cl)sc2C)cc1Cl` [Example 46, N-[4-(3-Chloro-4-methylphenyl)-5-methylthiazol-2-yl]-(2-chloro-5-nitrophenyl)carboxamide] gave an inhibition at 1 µM of 30.7%.

On to `Cc1nc(NC(=O)c2cc([N+](=O)[O-])ccc2Cl)sc1C` [Example 47], for which the inhibition at 1 µM is 16.7% with TNF-α production and 18% in test [1]. Consider `Cc1cccc(NC(=O)c2cc([N+](=O)[O-])ccc2Cl)n1` [Example 51, N-(6-Methylpyridin-2-yl)-(2-chloro-5-nitrophenyl)carboxamide], for which the inhibition at 1 µM in test [1] was determined as 15%. `Cc1ccc(NC(=O)c2cc([N+](=O)[O-])ccc2Cl)nc1` [Example 52, N-(5-Methylpyridin-2-yl)-(2-chloro-5-nitrophenyl)carboxamide]: the inhibition at 1 µM in the test on TNF-α production came out at 16.2%; in test [1], 17%. Compound `O=C(Nc1ccc2c3c(cccc13)CC2)c1cc([N+](=O)[O-])ccc1Cl` [Example 54, N-(Acenaphthen-5-yl)-(2-chloro-5-nitrophenyl)carboxamide] had an inhibition at 1 µM in the test on TNF-α production of 16.8%.

Regarding `O=C(Nc1cccc2cccnc12)c1cc([N+](=O)[O-])ccc1Cl` [Example 57, N-(8-Quinolinyl)-(2-chloro-5-nitrophenyl)carboxamide], the inhibition at 1 µM in test [1] amounted to 5%. `O=C(Nc1c(Cl)ncnc1Cl)c1cc([N+](=O)[O-])ccc1Cl` [Example 81, N-(4,6-Dichloropyrimidin-5-yl)-(2-chloro-5-nitrophenyl)carboxamide] came in with an inhibition at 1 µM with TNF-α production of 32%. On to `O=C(Nc1ccc(S(=O)(=O)Nc2nccs2)cc1)c1cc([N+](=O)[O-])ccc1Cl` [Example 96, N-[4-(Thiazol-2-yl)aminosulfonyl]phenyl-(2-chloro-5-nitrophenyl)carboxamide], for which the inhibition at 1 µM in test [1] came out at 17%. Regarding `Cc1cc(NS(=O)(=O)c2ccc(NC(=O)c3cc([N+](=O)[O-])ccc3Cl)cc2)no1` [Example 99], the “Inhibition Rate (%) against the colony forming activity” value in test [1] was 32.0%. `O=C(Nc1ccc(S(=O)(=O)Nc2ccc(Cl)nn2)cc1)c1cc([N+](=O)[O-])ccc1Cl` [Example 102, N-[4-[(6-Chloropyridazin-3-yl)aminosulfonyl]phenyl]-(2-chloro-5-nitrophenyl)carboxamide]: the inhibition at 1 µM in test [1] was 26%. Turning to `O=C(Nc1nc(-c2ccc(F)c(F)c2)cs1)c1cc([N+](=O)[O-])ccc1Cl` [Example 111, N-[4-(3,4-Difluorophenyl)thiazol-2-yl]-(2-chloro-5-nitrophenyl)carboxamide], at 1 µM the inhibition with TNF-α production was 28.7%. The same measure, in the same setting: then `CCCCCCN(CCCCCC)c1ccc(NC(=O)c2cc([N+](=O)[O-])ccc2Cl)cc1` [Example 138, N-[4-(N,N-di-n-Hexylamino)phenyl]-(2-chloro-5-nitrophenyl)carboxamide], with 17.8%; and `CC(C)(C)c1cc(C(=O)Nc2ccc(NC(=O)c3cc([N+](=O)[O-])ccc3Cl)cc2)cc(C(C)(C)C)c1O` [Example 157, N-[4-[(3,5-di-tert-Butyl-4-hydroxybenzoyl)amino]phenyl]-(2-chloro-5-nitrophenyl)carboxamide], with 38.6%. Still for that read-out and setting: with `CCCN(CC)c1ccc(NC(=O)c2cc([N+](=O)[O-])ccc2Cl)cc1` [Example 189, N-[4-(N-Ethyl-N-propylamino)phenyl]-(2-chloro-5-nitrophenyl)carboxamide] the figure was 16.3%. On the same count and under the same terms, with `CCCCCCNc1ccc(-c2ccc(NC(=O)c3cc([N+](=O)[O-])ccc3Cl)cc2)cc1` [Example 195, N-[4-[4-(N-Hexylamino)phenyl]phenyl]-(2-chloro-5-nitrophenyl)carboxamide] the figure was 16.1%; with `CCCCCCN(C)c1ccc(-c2ccc(NC(=O)c3cc([N+](=O)[O-])ccc3Cl)cc2)cc1` [Example 196, N-[4-[4-(N-Hexyl-N-methylamino)phenyl]phenyl]-(2-chloro-5-nitrophenyl)carboxamide], 15.3%. In the test on TNF-α production, `CCCCCCN(CC)c1ccc(-c2ccc(NC(=O)c3cc([N+](=O)[O-])ccc3Cl)cc2)cc1` [Example 197, N-[4-[4-(N-Ethyl-N-hexylamino)phenyl]phenyl]-(2-chloro-5-nitrophenyl)carboxamide] yielded an inhibition at 1 µM of 21.6%. On the same count and under the same terms, with `CCCCCCCCNc1ccc(-c2ccc(NC(=O)c3cc([N+](=O)[O-])ccc3Cl)cc2)cc1` [Example 219, N-[4-[4-(N-Octylamino)phenyl]phenyl]-(2-chloro-5-nitrophenyl)carboxamide] the figure was 21.7%. `CCCCCCCCN(CCCCCC)c1ccc(-c2ccc(NC(=O)c3cc([N+](=O)[O-])ccc3Cl)cc2)cc1` [Example 220, N-[4-[4-(N-Hexyl-N-octylamino)phenyl]phenyl]-(2-chloro-5-nitrophenyl)carboxamide mono-hydrochloride] registered an inhibition at 1 µM with TNF-α production of 16.3%. Still for that read-out and setting: then `CCCCCCCCN(CCCC)c1ccc(-c2ccc(NC(=O)c3cc([N+](=O)[O-])ccc3Cl)cc2)cc1.Cl` [Example 223, N-[4-[4-(N-Butyl-N-octylamino)phenyl]phenyl]-(2-chloro-5-nitrophenyl)carboxamide mono-hydrochloride], with 28.2%; and `CCCCCCCCN(CCC)c1ccc(-c2ccc(NC(=O)c3cc([N+](=O)[O-])ccc3Cl)cc2)cc1` [Example 224, N-[4-[4-(N-Octyl-N-propylamino)phenyl]phenyl]-(2-chloro-5-nitrophenyl)carboxamide], with 22.4%; and `CC(C)(C)OC(=O)Nc1cccc(-c2csc(NC(=O)c3cc([N+](=O)[O-])ccc3Cl)n2)c1` [Example 234, N-[4-(3-tert-Butoxycarbonylaminophenyl)thiazol-2-yl]-(2-chloro-5-nitrophenyl)carboxamide], with 32.5%.

Compound `CS(=O)(=O)N(c1ccc(-c2ccc(NC(=O)c3cc([N+](=O)[O-])ccc3Cl)cc2)cc1)S(C)(=O)=O` [Example 235, N-[4-[4-(N,N-Dimethanesulfonylamino)phenyl]phenyl]-(2-chloro-5-nitrophenyl)carboxamide] returned an inhibition at 1 µM with TNF-α production of 40.2%. Still for that read-out and setting: with `O=C(Nc1ccc(CCNC(=S)Nc2cccnc2)cc1)c1cc([N+](=O)[O-])ccc1Cl` [Example 273, N-[4-[2-(Pyridin-3-yl)aminothiocarbonylaminoethyl]phenyl]-(2-chloro-5-nitrophenyl)carboxamide] the figure was 19.9%. Take “N-[4-(Pyrrolidinylsulfonyl)phenyl]-(2-chloro-5-nitrophenyl)carboxamide [Example 152]”: in test [1], the “Inhibition Rate (%) against the colony forming activity” value is recorded as 24.0%.
